Test results: patent US20250122167A1, “Pyrazine Compounds Useful in the Treatment of Parasitic Protozoal Infection” (priority 2021, published 2025)
Where a name gives a salt, the structure may show the parent alone. Read-outs that look alike come from different tables or passages of the source.

Legend:
[1] = test system: P. falciparum 3D7A strain parasitized red blood cells; assay: P. falciparum growth inhibition assay Sybr Green; format: cell-based, Plasmodium falciparum; details: for IC50: Plasmodium falciparum, Erythrocyte, 48 h
Method: P. falciparum Growth Inhibition Assay Sybr Green
The parasite growth is determined measuring the staining of the DNA's minor groove with SYBR Green I, which labels the remaining parasites. The DNA-SYBR complex absorbs light reaching the peak at λ=498 nm and emits at a peak of λ=522 nm.
Briefly, a culture of 3D7A strain parasitized red blood cells (RBC) (0.5% parasitemia and 2% haematocrit in RPMI-1640 supplemented with 25 ml albumax and […] hypoxanthine for 500 ml) is exposed to 3-fold serial dilutions of the compound. Plates are incubated 48 h at 37° C., 5% CO2, 5% O2, 90% N2. At 48 h of incubation, SyberGreen I solution (2×) is added and plates are incubated for 30 minutes at 37° C., 5% CO2, 5% O2, 90% N2 and then plates are frozen at −80° C. Then plates are read in the EnVision (EnVision Multilabel Plate Reader, Perkin Elmer). Data (pIC50) are generated by ActivityBase (IDBS) and graphs are checked by Spotfire.
Inhibition of parasite growth in whole cell assay (infected human eritrocites) in vitro is directly linked to reduction of parasitemia in vivo.

[2] = Kinetic aqueous solubility in PBS pH 7.4 (HPLC-CAD); format: physicochemical; details: PBS pH7.4, room temperature, 1 hour equilibration; for solubility at 1 h / solubility kinetic at 1 h: phosphate buffered saline (PBS), pH 7.4, aqueous buffer, kinetic from dmso stock; for solubility kinetic at 1 h: read-out: Concentration; for Solubility: from DMSO stock
Method: The kinetic aqueous solubility was measured at room temperature after 1 hour equilibration in aqueous phosphate buffered saline (PBS) at pH7.4, and is determined by measuring the concentration of solute in solution after precipitation from DMSO stock solution.
The sample plate was left to equilibrate for 1 hour at room temperature.
Vacuum filtration was applied to filter the solution into a 96-well collection plate.
The filtrate was analysed by HPLC-CAD (Charged Aerosol Detector).
Calibration standards of Ketoconazole and Primidone were prepared by serial dilutions in DMSO at concentrations ranging from 0.016 to 4.5 mg/ml to produce the calibration curve.

[3] = Equilibrium solubility in Fasted State Simulated Intestinal Fluid (FaSSIF); details: FaSSIF pH 6.5, room temperature, 4 hour equilibration, dynamic range 1-1000 μg/ml
[4] = test system: Plasmodium falciparum Pf3D7^0087/N9; assay: P. falciparum in vivo efficacy assay (humanised mouse model); details: NODscidIL2Rγ mice engrafted with human erythrocytes; for ED90 mean: parasitemia by microscopy and flow cytometry; for AUCED90 mean: blood exposure (AUC0-23h after first dose) at ED90
Method: Antimalarial in vivo efficacy was determined using the P. falciparum mouse model following the procedure described in: Jimenez-Díaz, M. B., Mulet, T., Viera, S., Gómez, V., Garuti, H., Ibañez, J., Alvarez-Doval, A., Shlutz, D. L., Martinez, A., Improved Murine Model Of Malaria Using Plasmodium falciparum (Competent Strains and Non-Myelodepleted NOD-scid IL2R_null Mice Engrafted with Human Erythrocytes) Antimicrob. Agents Chemother 2009, 53 (10), 4533-4536.
The goal of the study was to assess the therapeutic efficacy of the examples against Plasmodium falciparum Pf3D7^0087/N9 growing in peripheral blood of NODscidIL2Ry^0087/N9 mice engrafted with human erythrocytes. The levels of the examples were measured in serial peripheral blood samples obtained from each mouse of the efficacy experiment during the first 23 hrs after the first dose. The area under the curve of levels of compound is used to estimate the exposure in blood during the first 23 hours after the first administration (AUC0-23h).
The effect of Examples 1, 2, 5, 7, 8 and 10 on P. Falciparum Pf3D7^0087/N9 was assessed by microscopy and flow cytometry.

physchem = details: Fasted State Simulated Intestinal Fluid (FaSSIF), pH 6.5, fassif, thermodynamic from solid
[5] = average, 48 h incubation, SYBR Green I readout, ditrifluoroacetic acid salt
[6] = range of values, 48 h incubation, SYBR Green I readout, ditrifluoroacetic acid salt
[7] = average, 48 h incubation, SYBR Green I readout, dihydrochloride
[8] = range of values, 48 h incubation, SYBR Green I readout, dihydrochloride
[9] = average, 48 h incubation, SYBR Green I readout, read-out: Average value pIC50 (converted)
[10] = range of values, 48 h incubation, SYBR Green I readout, read-out: Pf3D7 pIC50 (converted)
[11] = read-out: Average value pIC50, average (converted), 48 h incubation, SYBR Green I readout
[12] = read-out: Pf3D7 pIC50, range of values (converted), 48 h incubation, SYBR Green I readout

NC1(CNC(=O)c2ccc(-c3cncc(-c4cncc(F)c4)n3)cc2)CCC1 [Example 1, N-((1-aminocyclobutyl)methyl)-4-(6-(5-fluoropyridin-3-yl)pyrazin-2-yl)benzamide, ditrifluoroacetic acid salt]
Average value pIC50 [1, 5]: 8.50 | Pf3D7 pIC50 [1, 6]: 8.48-8.60 | solubility at 1 h [2]: ≥ 124 µg/mL | solubility kinetic at 1 h [2]: ≥ 329 mM | FaSSIF solubility ([3]; ditrifluoroacetic acid salt): 429 µg/mL | ED90 mean ([4]; ditrifluoroacetic acid salt): 1.28 mg/kg | AUCED90 mean ([4]; ditrifluoroacetic acid salt): 0.067 mg · h · mL^−1 · day^−1

NC1(CNC(=O)c2ccc(-c3cncc(-c4cncc(F)c4)n3)cc2)CCC1 [Example 2, N-((1-aminocyclobutyl)methyl)-4-(6-(5-fluoropyridin-3-yl)pyrazin-2-yl)benzamide, dihydrochloride]
Average value pIC50 [1, 7]: 8.50 | Pf3D7 pIC50 [1, 8]: 8.47-8.63 | solubility at 4 h (physchem): 398 µg/mL | solubility at 1 h [2]: ≥ 126 µg/mL | solubility kinetic at 1 h [2]: ≥ 335 mM | ED90 mean ([4]; dihydrochloride): 1.14 mg/kg | AUCED90 mean ([4]; dihydrochloride): 0.121 mg · h · mL^−1 · day^−1

NC1(CNC(=O)c2ccc(-c3cncc(-c4cncc(F)c4)n3)cc2)CCC1 [Example 3, N-((1-aminocyclobutyl)methyl)-4-(6-(5-fluoropyridin-3-yl)pyrazin-2-yl)benzamide, sulfuric acid salt]
IC50 [1, 9]: 3.16 nM | IC50 [1, 10]: 2.51 to 5.01 nM | Solubility [2]: ≥94.7 µg/mL

NC1(CNC(=O)c2ccc(-c3cncc(-c4cncc(F)c4)n3)cc2)CCC1 [Example 4, N-((1-aminocyclobutyl)methyl)-4-(6-(5-fluoropyridin-3-yl)pyrazin-2-yl)benzamide]
Average value pIC50 ([1]; average, 48 h incubation, SYBR Green I readout): 8.60 | Pf3D7 pIC50 ([1]; range of values, 48 h incubation, SYBR Green I readout): 8.54-8.76 | Solubility [2]: ≥129.8 µg/mL | FaSSIF solubility [3]: >1000 µg/mL

NC1(CNC(=O)c2ccc(-c3cncc(-c4cncc(F)c4)n3)cc2)CC1 [Example 5, N-((1-aminocyclopropyl)methyl)-4-(6-(5-fluoropyridin-3-yl)pyrazin-2-yl)benzamide, dihydrochloride]
IC50 [1, 11]: 3.16 nM | IC50 [1, 12]: 2.51 to 4.57 nM | solubility at 1 h [2]: ≥ 114 µg/mL | solubility kinetic at 1 h [2]: ≥ 313 mM | FaSSIF solubility ([3]; dihydrochloride): 380 µg/mL | ED90 mean [4]: 1.04 mg/kg | AUCED90 mean [4]: 0.13 mg · h · mL^−1 · day^−1

NC1(CNC(=O)c2ccc(-c3cncc(-c4cncc(F)c4)n3)cc2)CC1 [Example 6, N-((1-aminocyclopropyl)methyl)-4-(6-(5-fluoropyridin-3-yl)pyrazin-2-yl)benzamide, ditrifluoroacetic acid salt]
solubility at 4 h (physchem): 339 µg/mL | solubility at 1 h [2]: ≥ 200 µg/mL | solubility kinetic at 1 h [2]: ≥ 549 mM

CC(C)(N)CNC(=O)c1ccc(-c2cncc(-c3cncc(F)c3)n2)cc1 [Example 7, N-(2-amino-2-methylpropyl)-4-(6-(5-fluoropyridin-3-yl)pyrazin-2-yl)benzamide, ditrifluoroacetic acid salt]
IC50 [1, 11]: 7.94 nM | IC50 [1, 12]: 7.08 to 8.91 nM | solubility at 4 h (physchem): 742 µg/mL | solubility at 1 h [2]: ≥ 84.4 µg/mL | solubility kinetic at 1 h [2]: ≥ 231 mM | ED90 mean [4]: 1.74 mg/kg | AUCED90 mean [4]: 0.05 mg · h · mL^−1 · day^−1

N[C@@H]1CCCC[C@@H]1NC(=O)c1ccc(-c2cncc(-c3cncc(F)c3)n2)cc1 [Example 8, N-((1S,2R)-2-aminocyclohexyl)-4-(6-(5-fluoropyridin-3-yl)pyrazin-2-yl)benzamide, dihydrochloride]
Average value pIC50 [1, 7]: 8.40 | Pf3D7 pIC50 [1, 8]: 8.33-8.6 | solubility at 1 h [2]: ≥ 106 µg/mL | solubility kinetic at 1 h [2]: ≥ 271 mM | FaSSIF solubility ([3]; dihydrochloride): >1000 µg/mL | ED90 mean ([4]; dihydrochloride): 1.59 mg/kg | AUCED90 mean ([4]; dihydrochloride): 0.26 mg · h · mL^−1 · day^−1

N[C@@H]1CCCC[C@@H]1NC(=O)c1ccc(-c2cncc(-c3cncc(F)c3)n2)cc1 [Example 9, N-((1S,2R)-2-aminocyclohexyl)-4-(6-(5-fluoropyridin-3-yl)pyrazin-2-yl)benzamide, ditrifluoroacetic acid salt]
Average value pIC50 [1, 5]: 8.60 | Pf3D7 pIC50 [1, 6]: 8.53-8.60 | solubility at 4 h (physchem): 789 µg/mL | solubility at 1 h [2]: 115 µg/mL | solubility kinetic at 1 h [2]: 293 mM

N[C@@H]1CCCC[C@@H]1NC(=O)c1ccc(-c2cncc(-c3cncc(F)c3)n2)cc1 [Example 10, N-((1S,2R)-2-aminocyclohexyl)-4-(6-(5-fluoropyridin-3-yl)pyrazin-2-yl)benzamide]
IC50 [1, 9]: 3.16 nM | IC50 [1, 10]: 3.09 to 3.8 nM | Solubility [2]: ≥136.2 µg/mL | FaSSIF solubility [3]: 941 µg/mL | ED90 mean [4]: 0.95 mg/kg | AUCED90 mean [4]: 0.20 mg · h · mL^−1 · day^−1
